The values below come from patent US11524938B2, “Aromatic sulfonamide derivatives” (Bayer Pharma Aktiengesellschaft, priority 2016, dated 2022).

A value given as a limit tells only on which side of the number the result lay.

This assay deals with T1, human P2X4 (Homo sapiens, UniProt Q99571).
T1 sequence (Q99571 1-388): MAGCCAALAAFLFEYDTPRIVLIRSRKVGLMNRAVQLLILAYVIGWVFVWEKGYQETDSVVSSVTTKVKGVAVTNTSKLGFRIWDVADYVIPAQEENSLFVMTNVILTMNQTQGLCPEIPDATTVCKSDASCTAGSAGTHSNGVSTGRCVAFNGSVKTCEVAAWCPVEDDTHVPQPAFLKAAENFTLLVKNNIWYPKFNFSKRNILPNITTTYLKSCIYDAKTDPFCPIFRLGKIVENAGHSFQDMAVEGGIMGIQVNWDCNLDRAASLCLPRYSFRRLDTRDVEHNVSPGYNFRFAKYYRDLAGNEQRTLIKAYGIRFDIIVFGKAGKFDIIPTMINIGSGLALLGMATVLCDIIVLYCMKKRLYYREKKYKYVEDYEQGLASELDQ
Briefly: Human P2X4 HEK Cell FLIPR Assay. Format: cell-based. The settings on record: agonist Bz-ATP at EC80; for Emax: HEK293, HEK293 cells, percentage of maximal inhibition, read-out: Human P2X4 HEK Cells (FLIPR Assay) avg Efficacy [%]; for IC50: HEK293 cells, individual values listed where some fall outside detection range. In outline: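 Calcium flux read by FLIPR for 120 sec after Bz-ATP challenge at EC80 (established each assay day), following 30 min room-temperature compound preincubation in dye-loaded stable human P2X4 HEK293 cells. Peak RFU over basal normalized to agonist control; IC50, maximal inhibition and Hill coefficient from triplicate means.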

For `NS(=O)(=O)c1cc(NC(=O)Cc2c(Cl)cccc2Cl)ccc1-n1cc(Cl)cn1` [Example 80, N-[4-(4-Chloro-1H-pyrazol-1-yl)-3-sulfamoylphenyl]-2-(2,6-dichlorophenyl)acetamide], the Emax came to 96% and the IC50 was found to be 79 nM.

On to `NS(=O)(=O)c1cc(NC(=O)Cc2ccc(F)c(F)c2)ccc1-n1cc(Cl)cn1` [Example 81, N-[4-(4-Chloro-1H-pyrazol-1-yl)-3-sulfamoylphenyl]-2-(3,4-difluorophenyl)acetamide], for which the Emax was found to be 40% and the IC50 was over 25000 nM.

Turning to `NS(=O)(=O)c1cc(NC(=O)Cc2cccc(Cl)c2)ccc1-n1cc(Cl)cn1` [Example 82, 2-(3-Chlorophenyl)-N-[4-(4-chloro-1H-pyrazol-1-yl)-3-sulfamoylphenyl]acetamide], the Emax was found to be 36% and the concentration for half-maximal inhibition (IC50) was over 25000 nM.

Regarding `NS(=O)(=O)c1cc(NC(=O)Cc2cc(F)cc(F)c2)ccc1-n1cc(Cl)cn1` [Example 83, N-[4-(4-Chloro-1H-pyrazol-1-yl)-3-sulfamoylphenyl]-2-(3,5-difluorophenyl)acetamide], the Emax was found to be 36% and the 50% inhibitory concentration (IC50) is over 25000 nM.

As for `NS(=O)(=O)c1cc(NC(=O)Cc2ccc(F)cc2)ccc1-n1cc(Cl)cn1` [Example 84, N-[4-(4-Chloro-1H-pyrazol-1-yl)-3-sulfamoylphenyl]-2-(4-fluorophenyl)acetamide], the Emax worked out at 29% and the IC50 was over 25000 nM.

For `NS(=O)(=O)c1cc(NC(=O)Cc2ccccc2O)ccc1-n1cc(Cl)cn1` [Example 85, N-[4-(4-Chloro-1H-pyrazol-1-yl)-3-sulfamoylphenyl]-2-(2-hydroxyphenyl)acetamide], the Emax was determined as 92% and the IC50 stood at 42 nM.

Take `NS(=O)(=O)c1cc(NC(=O)Cc2ccc(O)cc2)ccc1-n1cc(Cl)cn1` [Example 86, N-[4-(4-Chloro-1H-pyrazol-1-yl)-3-sulfamoylphenyl]-2-(4-hydroxyphenyl)acetamide]: the Emax was 97% and the IC50 worked out at 353 nM.

On to `NS(=O)(=O)c1cc(NC(=O)Cc2cccc(F)c2F)ccc1-n1cc(Cl)cn1` [Example 87, N-[4-(4-Chloro-1H-pyrazol-1-yl)-3-sulfamoylphenyl]-2-(2,3-difluorophenyl)acetamide], for which the Emax stood at 82% and the IC50 came to 342 nM.

As for `NS(=O)(=O)c1cc(NC(=O)Cc2ccc(F)cc2Cl)ccc1-n1cc(Cl)cn1` [Example 88, 2-(2-Chloro-4-fluorophenyl)-N-[4-(4-chloro-1H-pyrazol-1-yl)-3-sulfamoyl-phenyl]acetamide], the Emax amounted to 87% and the IC50 is 80 nM.

Regarding `NS(=O)(=O)c1cc(NC(=O)Cc2cccnc2Cl)ccc1-n1cc(Cl)cn1` [Example 89, N-[4-(4-Chloro-1H-pyrazol-1-yl)-3-sulfamoylphenyl]-2-(2-chloropyridin-3-yl)-acetamide], the Emax came to 83% and the IC50 was 2320 nM.

For the compound `NS(=O)(=O)c1cc(NC(=O)Cc2cccc(C(F)(F)F)c2Cl)ccc1-n1cc(Cl)cn1` [Example 90, N-[4-(4-Chloro-1H-pyrazol-1-yl)-3-sulfamoylphenyl]-2-[2-chloro-3-(trifluoromethyl)-phenyl]acetamide], the Emax came to 85% and the IC50 was 774 nM.

Consider `NS(=O)(=O)c1cc(NC(=O)Cc2ccccc2OC(F)F)ccc1-n1cc(Cl)cn1` [Example 91, N-[4-(4-Chloro-1H-pyrazol-1-yl)-3-sulfamoylphenyl]-2-[2-(difluoromethoxy)-phenyl]acetamide], for which the Emax amounted to 94% and the IC50 was determined as 169 nM.

`NS(=O)(=O)c1cc(NC(=O)Cc2ccccc2OC(F)(F)F)ccc1-n1cc(Cl)cn1` [Example 92, N-[4-(4-Chloro-1H-pyrazol-1-yl)-3-sulfamoylphenyl]-2-[2-(trifluoromethoxy)-phenyl]acetamide]: the Emax came out at 92% and the IC50 is 143 nM.

Consider `NS(=O)(=O)c1cc(NC(=O)Cc2cc(F)c(F)cc2Cl)ccc1-n1cc(Cl)cn1` [Example 93, 2-(2-Chloro-4,5-difluorophenyl)-N-[4-(4-chloro-1H-pyrazol-1-yl)-3-sulfamoylphenyl]-acetamide], for which the Emax amounted to 73% and the IC50 was 74 nM.

With `COc1ccc(CC(=O)Nc2ccc(-n3cc(Cl)cn3)c(S(N)(=O)=O)c2)c(Cl)c1` [Example 94, 2-(2-Chloro-4-methoxyphenyl)-N-[4-(4-chloro-1H-pyrazol-1-yl)-3-sulfamoylphenyl]-acetamide], the Emax worked out at 72% and the 50% inhibitory concentration (IC50) was 413 nM.

Take `Cc1ccc(F)c(CC(=O)Nc2ccc(-n3cc(Cl)cn3)c(S(N)(=O)=O)c2)c1Cl` [Example 95, 2-(2-Chloro-6-fluoro-3-methylphenyl)-N-[4-(4-chloro-1H-pyrazol-1-yl)-3-sulfamoyl-phenyl]acetamide]: the Emax worked out at 87% and the IC50 came out at 54 nM.

`NS(=O)(=O)c1cc(NC(=O)Cc2c(F)ccc(F)c2Cl)ccc1-n1cc(Cl)cn1` [Example 96, 2-(2-Chloro-3,6-difluorophenyl)-N-[4-(4-chloro-1H-pyrazol-1-yl)-3-sulfamoylphenyl]-acetamide]: the Emax came to 83% and the IC50 is 233 nM.

Consider `Cc1ccc(Cl)c(CC(=O)Nc2ccc(-n3cc(Cl)cn3)c(S(N)(=O)=O)c2)c1` [Example 97, 2-(2-Chloro-5-methylphenyl)-N-[4-(4-chloro-1H-pyrazol-1-yl)-3-sulfamoylphenyl]-acetamide], for which the Emax amounted to 103% and the IC50 was 201 nM.

In the case of `NS(=O)(=O)c1cc(NC(=O)Cc2cc(F)ccc2Cl)ccc1-n1cc(Cl)cn1` [Example 98, 2-(2-Chloro-5-fluorophenyl)-N-[4-(4-chloro-1H-pyrazol-1-yl)-3-sulfamoylphenyl]-acetamide], the Emax was determined as 77% and the IC50 was 124 nM.

As to `NS(=O)(=O)c1cc(NC(=O)Cc2cc(Cl)ccc2Cl)ccc1-n1cc(Cl)cn1` [Example 99, N-[4-(4-Chloro-1H-pyrazol-1-yl)-3-sulfamoylphenyl]-2-(2,5-dichlorophenyl)acetamide], the Emax was found to be 87% and the IC50 was 499 nM.

As for `CC(C)c1ccccc1CC(=O)Nc1ccc(-n2cc(Cl)cn2)c(S(N)(=O)=O)c1` [Example 100, N-[4-(4-Chloro-1H-pyrazol-1-yl)-3-sulfamoylphenyl]-2-(2-isopropylphenyl)acetamide], the Emax was 86% and the IC50 was 319 nM.

In the case of `COc1ccc(Cl)c(CC(=O)Nc2ccc(-n3cc(Cl)cn3)c(S(N)(=O)=O)c2)c1` [Example 101, 2-(2-Chloro-5-methoxyphenyl)-N-[4-(4-chloro-1H-pyrazol-1-yl)-3-sulfamoylphenyl]-acetamide], the Emax stood at 83% and the IC50 was found to be 202 nM.

As for `NS(=O)(=O)c1cc(NC(=O)Cc2c(F)cc(F)cc2Cl)ccc1-n1cc(Cl)cn1` [Example 102, 2-(2-Chloro-4,6-difluorophenyl)-N-[4-(4-chloro-1H-pyrazol-1-yl)-3-sulfamoylphenyl]-acetamide], the Emax turned out to be 80% and the IC50 was found to be 99 nM.
